B1: Noggin: BMP inhibitor (BMP antagonist protein) (protein, UniProt Q13253 28-232, looked up)
Noggin: QHYLHIRPAPSDNLPLVDLIEHPDPIFDPKEKDLNETLLRSLLGGHYDPGFMATSPPEDRPGGGGGAAGGAEDLAELDQLLRQRPSGAMPSEIKGLEFSEGLAQGKKQRLSKKLRRKLQMWLWSQTFCPVLYAWNDLGSRFWPRYVKVGSCFSKRSCSVPEGMVCKPSKSVHLTVLRWRCQRRGGQRCGWIPIQYPIISECKCSC
B2: BMP4: Bone Morphogenic Protein 4, NCBI GeneID: 652 (protein, UniProt P12644 293-408, looked up)
Bone morphogenetic protein 4: SPKHHSQRARKKNKNCRRHSLYVDFSDVGWNDWIVAPPGYQAFYCHGDCPFPLADHLNSTNHAIVQTLVNSVNSSIPKACCVPTELSAISMLYLDEYDKVVLKNYQEMVVEGCGCR
B3: Activin: dimeric polypeptide which stimulates the Activin/Nodal pathway (protein, UniProt P08476 311-426, looked up)
Inhibin beta A chain: GLECDGKVNICCKKQFFVSFKDIGWNDWIIAPSGYHANYCEGECPSHIAGTSGSSLSFHSTVINHYRMRGHSPFANLKSCCVPTKLRPMSMLYYDDGQNIIKKDIQNMIVEECGCS
modifications: Inhibin beta A chain

What was measured:
[1] = tested on: DE cells generated from hESCs; assay: Pancreatic differentiation of hESC-derived definitive endoderm cells, QPCR of marker expression (FIG. 2); type: cell-based; conditions: for expression of pancreatic (progenitor) markers: hESC derived DE cells grown 3 days; for expression of gut (CDX2) and liver markers (AFP): hESC derived DE cells
Method: QPCR analyses showing the expression of PDX1/HLXB9/HNF6/CDX2/AFP/SOX9/PTF1A in DE cells grown for 3 days in the presence of diverse combination of Retinoic Acid (RA), SB431542 (SB) or Activin 10 ng/ml (Act), FGF10 50 ng/ml (FGF) or SU5402 10 μM (SU), and Noggin 100 ng/ml (Nog) or BMP4 10 ng/ml.
hESCs (H9 from WiCell) and hIPSCs (BBHX8, A1ATD-1, JRO1D) (Rashid S, et al. (2010) J Clin Invest 120: 3127-3136) were grown in defined culture (Brons et al (2007) Nature 448: 191-195). Cells were passaged weekly using collagenase IV and maintained in chemically defined medium (CDM) supplemented with Activin A (10 ng/ml) and FGF2 (12 ng/ml) as described previously ((Brons et al (2007)). Differentiation was carried out as described in FIG. 1. Daily media changes were made during the entire differentiation protocol. After the DE stage (stage 1), cells were cultured in Advanced DMEM (Invitrogen) supplemented with SB-431542 (10 μM; Tocris), FGF10 (50 ng/ml; AutogenBioclear), all-trans retinoic acid (RA, 2 μM; Sigma) and Noggin (50 ng/ml; R&D Systems) for 3 days. For stage 3, the cells were cultured in Advanced DMEM+human FGF10 (50 ng/ml; AutogenBioclear), all-trans retinoic acid (RA, 2 μM; Sigma), KAAD-cyclopamine (0.25 μM; Toronto Research Chemicals) and Noggin (50 ng/ml; R&D Systems) for 3 days. For Stage 4, the cells were cultured in human KGF (FGF7) or FGF10 (50 ng/ml; R&D Systems) for 3 days. For maturation of pancreatic progenitors, cells were grown in Advanced DMEM+1% vol/vol B27 and DAPT ([…]) for 3 days and for 3 additional days in Advanced DMEM+1% vol/vol B27. Alternatively, for Stage 4, the cells were cultured in human KGF (FGF7) or FGF10 (50 ng/ml; R&D Systems) and all-trans retinoic acid (RA, 2 μM; Sigma) for 3 days. Alternatively for maturation of pancreatic progenitors, cells were grown in Advanced DMEM+1% vol/vol B27, all-trans retinoic acid (RA, 2 μM; Sigma) and DAPT ([…]) for 3 days and for 3 additional days in Advanced DMEM+1% vol/vol B27 and all-trans retinoic acid (RA, 2 μM; Sigma).
(§1) Methods for RT-QPCR were described in Touboul T et al. (2010). Hepatology 51: 1754-1765. All data are presented as average of 3 independent biological triplicates and error bars indicate standard deviation.
We recently established a defined culture system to differentiate hESCs and hIPSCs into near homogenous populations of Definitive Endoderm (DE) cells (Teo A K et al. (2011) Genes Dev 25: 238-250). Importantly, this culture system relies on a chemically defined medium (CDM) devoid of animal products, including BSA, serum, complex extra cellular matrix such as Matrigel™, or feeders cells; thereby avoiding the presence of unknown factors which could interfere with experimental outcomes. To further extend this protocol, we screened a broad number of combinations of growth factors and inhibitors of signalling pathways to identify defined culture conditions driving differentiation of DE cells into pancreatic progenitors. […] We then sought to validate and optimise the role of each of these additives.

DE cells = assay: Ventral foregut / hepatic specification of DE cells, Q-PCR of hepatic markers (FIGS. 7, 8); type: cell-based, human
Text: as §1
During the screening of the culture conditions described above, we noted that DE cells grown in the presence of Activin acquired the appearance of foetal hepatocytes with large darkened cytoplasmic space and canaliculi-like structures. […] Alternatively, unknown signaling pathways could activate the same program of differentiation.

Row | Molecule | expression of pancreatic (progenitor) markers ([1]; QPCR, FIG. 2) | expression of gut (CDX2) and liver markers (AFP) ([1]; QPCR, FIG. 2) | expression of ventral foregut / liver bud / hepatic markers (DE cells; FIGS. 7 and 8) | further results
1 | CC1=C(/C=C/C(C)=C/C=C/C(C)=C/C(=O)O)C(C)(C)CCC1 [RA, (2E,4E,6E,8E)-3,7-dimethyl-9-(2,6,6-trimethylcyclohexen-1-yl)nona-2,4,6,8-tetraenoic acid] | necessary for the induction of pancreatic specification |  |  | 
2 | NC(=O)c1ccc(-c2nc(-c3ccc4c(c3)OCO4)c(-c3ccccn3)[nH]2)cc1 [SB431542, 4-(5-Benzol[1,3]dioxol-5-yl-4-pyridin-2-yl-1H-imidazol-2-yl)-benzamide hydrate] | had the opposite effect |  |  | expression of ventral foregut / liver bud / hepatic markers (DE cells; FIGS. 7 and 8, hydrate): decreases the expression of hepatic markers; expression of ventral foregut / liver bud / hepatic markers (DE cells; FIGS. 7 and 8, listed as SB, hydrate): decreased the expression of HNF4α, SOX17, HEX and TBX3
3 | Cc1c[nH]c(/C=C2\C(=O)Nc3ccccc32)c1CCC(=O)O [SU5402] | did not affect the expression of pancreatic progenitor markers | augmented | decreases the expression of hepatic markers | cell death ([1]; FGF inhibition during pancreatic differentiation): significant cell death; expression of PTF1A ([1]; absence of FGF signalling, QPCR, FIG. 2): strongly reduced
4 | B1 |  |  | decreases the expression of hepatic markers | HNF4 expression (DE cells; FIG. 8): moderate decrease
5 | B2 | significant decrease in the expression of pancreatic progenitor markers | inducing gut (CDX2) and liver markers (AFP) |  | 
6 | B3 | abolished the expression of pancreatic markers |  | expressed genes marking ventral foregut | 

Source: patent publication US9790470B2, “In vitro pancreatic differentiation of pluripotent mammalian cells” (Cambridge Enterprise Limited, priority 2012, dated 2017)
